Assay results taken from patent US7442717B2, “Substituted 2-aminoimidazoles, process for their preparation, their use as medicament or diagnostic aid” (Sanofi-Aventis Deutschland GmbH, priority 2003, dated 2008).
Counter-ions that a name gives are not always drawn.

Assays:
NHE2 = NHE2 (Rattus norvegicus, UniProt P48763); settings: read-out: IC50 for NHE2; literature value, J. Orlowski et al; cited from earlier work
imidazoline I1 receptor = settings: literature, Ernsberger et al Eur. J. Pharmacol. 134, 1, 1987; cited from earlier work
adrenergic α2 receptor = settings: literature, Ernsberger et al Eur. J. Pharmacol. 134, 1, 1987; cited from earlier work
rNHE3 = target: T1, rNHE3 (Rattus norvegicus, UniProt P26433); assay: Recovery of intracellular pH (pHi) after acidification, BCECF fluorescence, in fibroblasts (LAP 1 cells); type: cell-based; settings: pH recovery in LAP 1 fibroblasts
T1 construct: expressed in transfected cells; host or cells: LAP 1 cells (fibroblasts)
Description: In this test, the recovery in the intracellular pH (pHi) after an acidification was ascertained, which is initiated if the NHE3 is capable of functioning, even under bicarbonate-free conditions. For this purpose, the pHi was determined using the pH-sensitive fluorescent dye BCECF (Calbiochem, the precursor BCECF-AM is employed). The cells (fibroblasts, LAP 1 cells) were initially loaded with BCECF. The BCECF fluorescence was determined in a “Ratio Fluorescence Spectrometer” (Photon Technology International, South Brunswick, N.J., USA) at excitation wavelengths of 505 and 440 nm and an emission wavelength of 535 nm and converted into the pHi using calibration curves. The cells were incubated in NH4Cl buffer (pH 7.4) (NH4Cl buffer: 115 mM NaCl, 20 mM NH4Cl, 5 mM KCl, 1 mM CaCl2, 1 mM MgSO4, 20 mM Hepes, 5 mM glucose, 1 mg/ml BSA; a pH of 7.4 is adjusted with 1 M NaOH) even during the BCECF loading. The intracellular acidification was induced by adding 975 μl of an NH4Cl-free buffer (see below) to 25 μl aliquots of the cells incubated in NH4Cl buffer. The subsequent rate of pH recovery was recorded for three minutes. To calculate the inhibitory potency of the tested substances, the cells were initially investigated in buffers with which a complete or absolutely no pH recovery took place. For complete pH recovery (100%), the cells were incubated in Na^+-containing buffer (133.8 mM NaCl, 4.7 mM KCl, 1.25 mM CaCl2, 1.25 mM MgCl2, 0.97 mM Na2HPO4, 0.23 mM NaH2PO4, 5 mM Hepes, 5 mM glucose, a pH of 7.0 is adjusted with 1 M NaOH). To determine the 0% value, the cells were incubated in an Na^+-free buffer (133.8 mM choline chloride, 4.7 mM KCl, 1.25 mM CaCl2, 1.25 mM MgCl2, 0.97 mM K2HPO4, 0.23 mM KH2PO4, 5 mM Hepes, 5 mM glucose, a pH of 7.0 is adjusted with 1 M KOH). The substances to be tested were made up in the Na^+-containing buffer. The recovery of the intracellular pH at each test concentration of a substance was expressed as a percentage of the maximum recovery. The IC50 value for the particular substance for the individual NHE subtypes was calculated from the pH recovery percentages using the Sigma-Plot program.

NHE3 = NHE3 (Oryctolagus cuniculus, UniProt P26432); settings: literature, M. Donowitz et al. Am. J. Physiol. 276; cited from earlier work
NHE3, sequence (P26432 30-832): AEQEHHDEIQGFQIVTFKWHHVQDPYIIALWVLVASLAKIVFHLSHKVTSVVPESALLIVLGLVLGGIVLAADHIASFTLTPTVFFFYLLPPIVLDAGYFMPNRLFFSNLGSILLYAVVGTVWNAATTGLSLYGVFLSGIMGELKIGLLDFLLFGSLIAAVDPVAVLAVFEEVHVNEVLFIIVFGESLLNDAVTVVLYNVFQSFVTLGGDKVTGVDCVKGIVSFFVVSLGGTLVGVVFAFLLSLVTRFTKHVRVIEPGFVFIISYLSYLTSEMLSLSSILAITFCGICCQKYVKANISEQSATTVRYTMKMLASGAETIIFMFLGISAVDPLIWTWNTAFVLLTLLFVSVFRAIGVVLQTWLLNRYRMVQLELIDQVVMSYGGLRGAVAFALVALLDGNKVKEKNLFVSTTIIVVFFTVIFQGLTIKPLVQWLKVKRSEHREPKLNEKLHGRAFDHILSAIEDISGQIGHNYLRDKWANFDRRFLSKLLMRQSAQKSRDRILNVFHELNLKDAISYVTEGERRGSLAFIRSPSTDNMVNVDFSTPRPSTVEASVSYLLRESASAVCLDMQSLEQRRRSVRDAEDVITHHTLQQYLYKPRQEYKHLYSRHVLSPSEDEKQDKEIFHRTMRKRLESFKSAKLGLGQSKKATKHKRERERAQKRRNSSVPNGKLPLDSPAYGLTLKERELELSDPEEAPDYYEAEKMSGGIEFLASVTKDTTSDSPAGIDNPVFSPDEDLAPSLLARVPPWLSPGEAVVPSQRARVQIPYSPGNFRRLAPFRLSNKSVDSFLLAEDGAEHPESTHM

T1 sequence (P26433 29-831): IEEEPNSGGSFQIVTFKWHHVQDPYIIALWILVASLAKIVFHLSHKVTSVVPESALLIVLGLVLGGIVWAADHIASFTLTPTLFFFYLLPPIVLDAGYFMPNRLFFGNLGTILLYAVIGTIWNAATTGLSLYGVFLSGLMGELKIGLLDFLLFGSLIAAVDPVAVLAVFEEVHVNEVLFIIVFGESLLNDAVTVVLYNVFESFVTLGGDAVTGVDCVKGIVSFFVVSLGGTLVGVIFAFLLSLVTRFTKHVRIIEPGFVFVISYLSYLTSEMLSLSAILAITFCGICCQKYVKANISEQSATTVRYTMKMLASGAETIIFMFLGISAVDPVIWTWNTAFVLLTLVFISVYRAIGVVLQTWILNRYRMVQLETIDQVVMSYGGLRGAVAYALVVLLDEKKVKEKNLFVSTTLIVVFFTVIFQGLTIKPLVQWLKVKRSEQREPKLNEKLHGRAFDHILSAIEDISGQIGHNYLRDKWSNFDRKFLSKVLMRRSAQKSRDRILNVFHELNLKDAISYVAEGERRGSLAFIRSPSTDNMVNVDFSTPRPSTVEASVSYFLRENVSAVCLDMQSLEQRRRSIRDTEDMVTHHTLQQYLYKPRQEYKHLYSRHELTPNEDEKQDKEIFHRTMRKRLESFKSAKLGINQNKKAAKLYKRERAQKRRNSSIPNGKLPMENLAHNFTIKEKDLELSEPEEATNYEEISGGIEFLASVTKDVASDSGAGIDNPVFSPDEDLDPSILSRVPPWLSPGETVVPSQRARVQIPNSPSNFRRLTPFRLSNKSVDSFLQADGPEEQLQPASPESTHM
NHE2, sequence (P48763 whole entry): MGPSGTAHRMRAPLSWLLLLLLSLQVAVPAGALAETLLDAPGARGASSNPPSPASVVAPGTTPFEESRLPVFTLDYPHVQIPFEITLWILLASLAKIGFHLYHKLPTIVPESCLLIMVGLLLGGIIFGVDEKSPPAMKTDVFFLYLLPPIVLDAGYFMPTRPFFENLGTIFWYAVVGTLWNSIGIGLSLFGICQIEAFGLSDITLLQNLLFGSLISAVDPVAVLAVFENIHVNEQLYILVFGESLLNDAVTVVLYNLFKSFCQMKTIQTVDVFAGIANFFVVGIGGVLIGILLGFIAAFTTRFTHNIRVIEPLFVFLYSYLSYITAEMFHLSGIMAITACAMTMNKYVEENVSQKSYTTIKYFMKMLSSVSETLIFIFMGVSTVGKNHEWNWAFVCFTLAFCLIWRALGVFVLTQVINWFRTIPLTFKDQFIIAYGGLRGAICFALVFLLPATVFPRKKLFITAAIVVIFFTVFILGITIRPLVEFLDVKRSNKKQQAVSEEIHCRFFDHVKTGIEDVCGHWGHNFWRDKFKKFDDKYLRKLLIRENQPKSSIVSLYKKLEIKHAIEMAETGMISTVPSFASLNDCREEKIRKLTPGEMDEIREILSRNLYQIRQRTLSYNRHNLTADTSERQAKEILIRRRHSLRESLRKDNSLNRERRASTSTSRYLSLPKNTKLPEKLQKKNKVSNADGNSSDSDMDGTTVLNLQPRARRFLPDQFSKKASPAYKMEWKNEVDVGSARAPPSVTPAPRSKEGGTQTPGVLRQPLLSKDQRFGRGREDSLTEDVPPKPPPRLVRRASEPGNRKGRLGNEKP

Row | Structure (SMILES) | IC50 (rNHE3) | other results
1 | Clc1cccc(Cl)c1N=C1NCCN1 [Clonidine] | – | IC50 (NHE2): 42000 nM; affinity for the imidazoline I1 receptor (imidazoline I1 receptor): high affinity; affinity for the adrenergic α2 receptor (adrenergic α2 receptor): high affinity
2 | Clc1cccc(Cl)c1Nc1ncc[nH]1 [Example 1, (2,6-Dichlorophenyl)(1H-imidazol-2-yl)amine hydrochloride] | 7.7 µM | –
3 | Cc1c[nH]c(Nc2c(Cl)cccc2Cl)n1 [Example 2, (2,6-Dichlorophenyl)(4-methyl-1H-imidazol-2-yl)amine hydrochloride] | 1.7 µM | –
4 | Cc1nc(Nc2c(Cl)cccc2Cl)[nH]c1C [Example 3, (2,6-Dichlorophenyl)(4,5-dimethyl-1H-imidazol-2-yl)amine hydrochloride] | 0.84 µM | –
5 | Clc1cccc(Cl)c1Nc1nc2c([nH]1)CCCC2 [Example 5, (2,6-Dichlorophenyl)(4,5,6,7-tetrahydro-1H-benzoimidazol-2-yl)amine hydrochloride] | 0.24 µM | –
6 | N#Cc1nc(Nc2c(Cl)cccc2Cl)[nH]c1C#N [Example 6, 2-(2,6-Dichlorophenylamino)-1H-imidazole-4,5-dicarbonitrile] | 98 µM | –
7 | CN(c1nc2c([nH]1)CCCC2)c1c(Cl)cccc1Cl [Example 7, hydrochloride] | 0.28 µM | –
8 | CC(C)[C@@H](CC[C@@H](C)[C@H]1CC[C@H]2[C@@H]3[C@H](O)C[C@H]4C[C@@H](NCCCNCCCCN)CC[C@]4(C)[C@H]3CC[C@]12C)OS(=O)(=O)O [Squalamine] | – | time to maximum strength of NHE3-inhibiting effect (NHE3): only after one hour
